Measurements published in US20260265798A1, “Enzymes and Uses in Biocatalytic Halogenation of N-Heteroaryls Thereof” (Agency for Science, Technology and Research, priority 2022, published 2026).
Marks after values point to notes of the source that are not given here.

Tests used:
NT-11 PrnC = biological target: T1, NT-11 PrnC (Pseudomonas fluorescens, UniProt P95482); experiment: NT-11 PrnC-catalyzed halogenation, analytical scale biotransformation (in-vitro regioselective chlorination, substrate scope); type: biochemical; details: in-vitro chlorination by PrnC under optimized conditions; substrate 0.5 mM, MgCl2 10 mM, overnight 30° C.; HPLC
T1 construct: made in house; host or cells: T7 Express E. coli (NEB), pET-28a(+)
T1 sequence (P95482 with tags, fused parts or gaps): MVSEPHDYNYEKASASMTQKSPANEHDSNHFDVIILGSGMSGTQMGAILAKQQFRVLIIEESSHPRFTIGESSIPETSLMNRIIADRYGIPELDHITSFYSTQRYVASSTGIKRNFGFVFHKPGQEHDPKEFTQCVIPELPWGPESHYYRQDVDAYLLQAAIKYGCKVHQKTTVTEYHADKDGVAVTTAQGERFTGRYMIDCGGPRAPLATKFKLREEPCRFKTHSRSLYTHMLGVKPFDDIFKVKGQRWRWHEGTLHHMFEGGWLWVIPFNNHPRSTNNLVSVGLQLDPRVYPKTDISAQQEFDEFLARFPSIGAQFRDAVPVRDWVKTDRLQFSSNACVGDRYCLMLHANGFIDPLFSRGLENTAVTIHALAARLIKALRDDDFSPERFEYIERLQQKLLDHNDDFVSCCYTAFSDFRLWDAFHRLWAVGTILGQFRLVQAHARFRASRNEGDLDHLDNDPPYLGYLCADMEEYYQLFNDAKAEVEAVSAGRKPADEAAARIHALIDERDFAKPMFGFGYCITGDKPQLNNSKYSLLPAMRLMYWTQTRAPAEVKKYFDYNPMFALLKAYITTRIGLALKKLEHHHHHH
Experimental: NT-11 PrnC-Catalyzed halogenation. In a solution containing the pyrrolic derivative starting material (0.5 mM), MgCl2/MgBr2 (10 mM), glucose (5.0 mM), FAD ([…]), NT-11 PrnC (12.5 μM), Fre ([…]) and Gdhi (2.5 μM) in 10 mM potassium phosphate buffer, NADH (2.5 mM) was added to a total volume of 200 μL. After an overnight incubation of 30° C. and orbital shaking at 350 rpm, reactions were quenched with an equivalent volume of MeOH, pelleted by centrifugation (15000 rpm for 10 min) and the supernatant analyzed by HPLC-MS using the analytical HPLC method.
Analytical HPLC Method. 10 μL of the supernatant injected onto SecurityGuard™ column (KJ0-4282) with a (4.0 mm×3.0 mm) guard cartridge before separation using a Phenomenex Gemini® C18 analytical column (5 μm packing, 150 mm×4.6 mm). Gradient starting conditions of 5% MeCN/H2O (+0.1% Formic acid) were held for 1 min before development into 50% MeCN/H2O over 3 min, followed by development into 95% MeCN/H2O over 3 min. 95% MeCN/H2O was held for 1 min before equilibration back to starting conditions over 1 min. Starting conditions was held for 1 min followed by another 2 min post-run. Flow rates were kept constant at 1 mL/min. Column temperature was kept constant at 30° C. UV absorbance was detected at 220 nm, 254 nm and 210 nm throughout the run.
A substrate scope of the enzyme by the application of the Prnc enzyme on a list of structural diverse pyrrolic substrates is determined. An optimized co-factors regeneration protocol was used to regulate the generation of the activated halogen which is captured by the Prnc enzyme into the active site for the bioconversion. Reaction is conducted at ambient temperature of 30° C., in an aqueous non-toxic buffer solution with an environmentally friendly chloride source.

PrnC = biological target: T2, PrnC (Pseudomonas fluorescens, UniProt P95482); experiment: Optimization study of PrnC biocatalyst enzymatic assay conditions on the native substrate 1; type: biochemical
T2 construct: made in house; host or cells: T7 Express E. coli (NEB), pET-28a(+)
T2 sequence (P95482 with tags, fused parts or gaps): T1 sequence (P95482 with tags, fused parts or gaps)
Experimental: The conditions in the table above would be referred to as the standard conditions of the present invention; i.e. flavin-dependent halogenase (4 mol %), flavin adenine dinucleotide (FAD) (0.2 mol %), E. coli flavin reductase (Fre) (0.5 mol %), nicotinamide adenine dinucleotide hydrogen (NADH) (5.0 equiv), glucose 1-dehydrogenase (GdHi) (0.5 mol %), monosaccharide (10.0 equiv), halogen (20.0 equiv), buffer (10 mM, pH 7.4).
With the purified biocatalyst PrnC enzyme in hand, a preliminary optimization study of the enzymatic assay conditions was performed on the native substrate monodechloroaminopyrrolnitrin (1). The enzyme assays were carried out for 18 h with orbital shaking at 300 rpm and a temperature of 30° C. In addition to the substrate and PrnC, the reaction mixture contained FAD (0.1 equivalents relative to PrnC), NADH and E. coli flavin reductase (Fre), needed to generate FADH2 for the halogenation reaction. In initial assays, even using a super stoichiometric amount of NADH (5.0 equiv) (entry 1) only yielded 18% conversion to the desired product.

SMILES	conversion yield (NT-11 PrnC) [%]	also measured
Nc1ccccc1-c1cc(Cl)c[nH]1 [compound 11, 2-(4-chloro-1H-pyrrol-2-yl)aniline]	68	–
Cc1ccccc1-c1c[nH]cc1Cl [compound 5, 3-chloro-4-(o-tolyl)-1H-pyrrole]	22	–
COc1ccccc1-c1c[nH]cc1Cl [compound 6, 3-chloro-4-(2-methoxyphenyl)-1H-pyrrole]	41	–
CC(=O)Nc1ccccc1-c1c[nH]cc1Cl [compound 3, N-(2-(4-chloro-1H-pyrrol-3-yl)phenyl)acetamide]	18	–
Clc1c[nH]cc1-c1cnc2ccccc2c1 [compound 14, 3-(4-chloro-1H-pyrrol-3-yl) quinoline]	63	–
Clc1c[nH]cc1-c1cccnc1 [compound 9, 3-(4-chloro-1H-pyrrol-3-yl)pyridine]	73	–
Nc1c(Cl)cccc1-c1c[nH]cc1Cl [compound 2, 2-chloro-6-(4-chloro-1H-pyrrol-3-yl)aniline]	55	conversion of 2 (%) (PrnC; entry 1: 2 mol% FAD (10x), no GdHi & glucose, 18 h, 30° C.): 18%; conversion of 2 (%) (PrnC; entry 2: 2 mol% FAD (10x), GdHi regen): 16%; conversion of 2 (%) (PrnC; entry 4: 1 mol% of Fre (2x)): 72%; conversion of 2 (%) (PrnC; entry 5: 0.05 Equiv NADH (Less 100x)): 32%; conversion of 2 (%) (PrnC; entry 6: 0.05 Equiv NADH (Less 100x) + 8 mol% PrnC (2x)): 53%; conversion of 2 (%) (PrnC; entry 7: 0.05 Equiv NADH (Less 100x) in Tris HCl buffer): 49%; conversion of 2 (%) (PrnC; standard conditions: PrnC 4 mol%, GdHi 0.5 mol%, FAD 0.2 mol%, Fre 0.5 mol%, NADH 5.0 equiv, glucose 10.0 equiv, MgCl2 20.0 equiv, phosphate buffer 10 mM pH 7.4): 91^b %
Clc1c[nH]cc1-c1ccccc1 [compound 8, 3-chloro-4-phenyl-1H-pyrrole]	77	–
Nc1c(Cl)cccc1-c1[nH]ncc1Cl [compound 12, 2-chloro-6-(4-chloro-1H-pyrazol-5-yl)aniline]	14	–
Oc1ccccc1-c1c[nH]cc1Cl [compound 7, 2-(4-chloro-1H-pyrrol-3-yl)phenol]	21	–
